Source: patent US20200024278A1, “COMPOSITION COMPRISING ANTIBIOTIC COMPOUND AND AN HETEROCYCLIC COMPOUND AND THEIR USE IN PREVENTING OR TREATING BACTERIAL INFECTIONS” (MUTABILIS, priority 2016, published 2020)
Read-outs that look alike come from different tables or passages of the source.

Key:
Test in all cases: MIC, broth microdilution (CLSI), substance alone or ATB combined with compound at 4 or 8 μg/mL
PAE UFR90 = type: cell-based, P. aeruginosa; settings: Pseudomonas aeruginosa, PAE UFR90
Outline: (§1)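 CLSI M7-A7 broth microdilution. ca-MHB, 5·10^5 CFU/mL log-phase cells, 16-20 h, 35° C, ambient air. Fosfomycin wells + 25 μg/ml glucose-6-phosphate. Visual MIC read.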

PAE UFR48 = type: cell-based, P. aeruginosa; settings: Pseudomonas aeruginosa, PAE UFR48
Outline: as §1

PAE 105250 = type: cell-based, P. aeruginosa; settings: Pseudomonas aeruginosa, PAE 105250
Outline: as §1

ECO UFR39 = type: cell-based, E. coli; settings: Escherichia coli, ECO UFR39
Outline: as §1

ECO 190317 = type: cell-based, E. coli; settings: Escherichia coli, ECO 190317
Outline: as §1

SAU 29213 = type: cell-based, S. aureus; settings: Staphylococcus aureus
Outline: as §1

ECL P99 = type: cell-based, E. cloacae; settings: Enterobacter cloacae, ECL P99
Outline: as §1

SPN 49619 = type: cell-based, S. pneumoniae; settings: Streptococcus pneumoniae, SPN 49619
Outline: as §1

KPN UFR68 = type: cell-based, K. pneumoniae; settings: Klebsiella pneumoniae, substance alone
Outline: as §1

KPN BAA-1898 = type: cell-based, K. pneumoniae; settings: Klebsiella pneumoniae, BAA1898, KPN BAA-1898
Outline: as §1

KPN 6299 = type: cell-based, K. pneumoniae; settings: Klebsiella pneumoniae
Outline: as §1

KPN UFR42 = type: cell-based, K. pneumoniae; settings: Klebsiella pneumoniae, KPN UFR42
Outline: as §1

[1] = antibiotic alone, read-out: MIC ATB alone

MIC (PAE UFR90; [1]): 256 µg/mL
MIC (PAE UFR90; substance alone, read-out: MIC): 256 µg/mL
MIC (PAE UFR48; [1]): 256 µg/mL
MIC (PAE UFR48; substance alone, read-out: MIC): 256 µg/mL
MIC (PAE 105250; [1]): 128 µg/mL
MIC (PAE 105250; substance alone, read-out: MIC): 128 µg/mL
MIC (ECO UFR39; [1]): > 1020 µg/mL
MIC (ECO UFR39; substance alone, read-out: MIC): > 1020 µg/mL
MIC (ECO 190317; [1]): > 1020 µg/mL
MIC (ECO 190317; substance alone, read-out: MIC): > 1020 µg/mL
MIC (SAU 29213; antibiotic alone, SAU 29213, read-out: MIC ATB alone): 8 µg/mL
MIC (SAU 29213; substance alone, SAU 29213 (MSSA 29213), read-out: MIC): 8 µg/mL
MIC (ECL P99; [1]): 512 µg/mL
MIC (ECL P99; substance alone, read-out: MIC): 512 µg/mL
MIC (SPN 49619; [1]): 0.5 µg/mL
MIC (SPN 49619; substance alone, read-out: MIC): 0.5 µg/mL
MIC (KPN UFR68): > 1020 µg/mL
MIC (KPN BAA-1898; [1]): > 1020 µg/mL
MIC (KPN BAA-1898; substance alone, read-out: MIC): > 1020 µg/mL
MIC (KPN 6299; [1]): > 1020 µg/mL
MIC (KPN 6299; substance alone, read-out: MIC): > 1020 µg/mL
MIC (KPN UFR42; [1]): > 256 µg/mL
MIC (KPN UFR42; substance alone, read-out: MIC): > 256 µg/mL
Compound: CCN1CCN(C(=O)N[C@@H](C(=O)N[C@@H]2C(=O)N3[C@@H]2SC(C)(C)[C@@H]3C(=O)O)c2ccccc2)C(=O)C1=O [PIP, Piperacillin, reference compound]
